# Laboratory results reported in patent publication US4883796A, “Oxime ethers of 2,6-dioxabicyclo(3.3.0)octanones, and compositions and methods for treatment of a cardiac disease or circulatory with them” (Heinrich Mack Nachf., priority 1987, dated 1989).
# Assays:
# [1] = system: isolated aorta strips; test: inhibition of potassium chloride-induced contractions on isolated aorta strips, rabbit; assay type: cell-based; conditions: read-out: ED50, inhibition of potassium chloride-induced contractions
# [2] = system: Isoprenaline tachycardia; test: Inhibition of Isoprenaline tachycardia in narcotised, despinalised rats; assay type: in vivo; conditions: Rattus norvegicus, prophylactic
# Source text: Inhibition of Isoprenaline tachycardia in narcotised,
# despinalised rats after prophylactic, intravenous or
# intraduodenal application
# [3] = orientating toxicity, mice, perorally; conditions: mouse, in vivo, po, read-out: dose withstood without clinical symptoms and without fatalities
# [4] = Influence on systolic arterial pressure and heart rate of conscious normotensive beagle dogs, perorally; assay type: in vivo
# Method: Influence on the systolic arterial pressure (SAP) and the heart rate
# (HR) of concious normotensive beagle dogs. Substance was administered
# [5] = system: Lypressin-induced T-wave elevation in the ECG; test: Influence on the Lypressin-induced T-wave elevation in the ECG of narcotised rats; assay type: in vivo; conditions: for ED50: Rattus norvegicus, po, 0.25 h, perorally 15 minutes before Lypressin; for Length of action at ED50-Dose: perorally
# Method: Influence on the T-wave elevation in the ECG of narcotised
# rats, which was induced by intravenous bolus injection of
# Lypressin. The substances were administered perorally 15
# minutes and at various times before the Lypressin injection
# [6] = Reduction of the arterial mean pressure in narcotised rabbits, i.d.; assay type: in vivo; conditions: Oryctolagus cuniculus, intraduodenal, read-out: ED30 (mmHg), reduction of the arterial mean pressure
# Method: Reduction of the arterial mean pressure in narcotised rabbits.
# The substance was administered i.d.
# [7] = system: isolated aorta strips; test: inhibition of potassium chloride-induced contractions on isolated aorta strips, rat; assay type: cell-based; conditions: read-out: ED50, inhibition of potassium chloride-induced contractions
# [8] = Cardiovascular effects after i.d. administration to narcotised rats with opened thorax and artificial respiration; assay type: in vivo; conditions: 30 mg/kg i.d.
# Source text: |Cardiovascular effects of example 3 after i.d. administration to |narcotised rats (Pentobarbital) with opened thorax and artificial |respiration.
# [9] = Cardiovascular effects after intravenous administration to narcotised rats with opened thorax and artificial respiration; assay type: in vivo; conditions: 1.0 mg/kg i.v.
# Source text: |Cardiovascular effects of the compound of example 3 after intravenous |administration to narcotised rats (Pentobarbital) with opened thorax and |artificial respiration.
smiles,measurement,setting,value
"CC(C)NCC(O)CON=C1CO[C@H]2[C@@H]1OC[C@H]2O[N+](=O)[O-] (stereo partly drawn) [Example 1, 4-(2-Hydroxy-3-isopropylamino-propyl)-oximino-2,6-dioxabicyclo[3.3.0]octan-8-endo-ol-nitrate]",IC50,[1]; Oryctolagus cuniculus,5.9 µM
same,ED50,[2]; iv,11 mg/kg
same,ED50,[2]; i.d.,82.6 mg/kg
same,NOAEL,[3],500 mg/kg
same,HR changes,"[4]; 10.0 mg/kg perorally, 0.5 h",-15 ± 3 Schl/M
same,SAP changes,"[4]; 10.0 mg/kg perorally, 0.5 h",-36 ± 2 mmHg
same,HR (heart rate),"[4]; 10.0 mg/kg perorally, 0.5 h, 0 h value 88 ± 3",73 ± 3 Schl/M
same,SAP (systolic arterial pressure),"[4]; 10.0 mg/kg perorally, 0.5 h, 0 h value 134 ± 3",98 ± 3 mmHg
same,HR changes,"[4]; 10.0 mg/kg perorally, 1 h",-16 ± 4 Schl/M
same,SAP changes,"[4]; 10.0 mg/kg perorally, 1 h",-32 ± 2 mmHg
same,HR (heart rate),"[4]; 10.0 mg/kg perorally, 1 h, 0 h value 88 ± 3",72 ± 5 Schl/M
same,SAP (systolic arterial pressure),"[4]; 10.0 mg/kg perorally, 1 h, 0 h value 134 ± 3",102 ± 4 mmHg
same,HR changes,"[4]; 10.0 mg/kg perorally, 2 h",-14 ± 2 Schl/M
same,SAP changes,"[4]; 10.0 mg/kg perorally, 2 h",-20 ± 1 mmHg
same,HR (heart rate),"[4]; 10.0 mg/kg perorally, 2 h, 0 h value 88 ± 3",74 ± 6 Schl/M
same,SAP (systolic arterial pressure),"[4]; 10.0 mg/kg perorally, 2 h, 0 h value 134 ± 3",114 ± 3 mmHg
same,HR changes,"[4]; 10.0 mg/kg perorally, 3 h",-10 ± 3 Schl/M
same,SAP changes,"[4]; 10.0 mg/kg perorally, 3 h",-16 ± 2 mmHg
same,HR (heart rate),"[4]; 10.0 mg/kg perorally, 3 h, 0 h value 88 ± 3",78 ± 4 Schl/M
same,SAP (systolic arterial pressure),"[4]; 10.0 mg/kg perorally, 3 h, 0 h value 134 ± 3",118 ± 3 mmHg
same,HR changes,"[4]; 10.0 mg/kg perorally, 4 h",-9 ± 2 Schl/M
same,SAP changes,"[4]; 10.0 mg/kg perorally, 4 h",-19 ± 3 mmHg
same,HR (heart rate),"[4]; 10.0 mg/kg perorally, 4 h, 0 h value 88 ± 3",79 ± 5 Schl/M
same,SAP (systolic arterial pressure),"[4]; 10.0 mg/kg perorally, 4 h, 0 h value 134 ± 3",115 ± 3 mmHg
same,ED50,[5],53.8 mg/kg
same,Length of action at ED50-Dose,[5],240 min
same,ED (30 mmHg),[6],24.2 mg/kg
same,IC50,[7],24 µM
"CC(C)NCC(O)CON=C1COC2C(O[N+](=O)[O-])COC12 (stereo not drawn) [Example 2, 4-(2-Hydroxy-3-isopropylamino-propyl)-oximino-2,6-dioxabicyclo[3.3.0]octan-8-exo-ol-nitrate]",IC50,[1],4000 µM
same,IC50,[7],472 µM
"CC(C)(C)NCC(O)CON=C1CO[C@H]2[C@@H]1OC[C@H]2O[N+](=O)[O-] (stereo partly drawn) [Example 3, 4-(3-tert.-Butylamino-2-hydroxy-propyl)-oximino-2,6-dioxabicyclo[3.3.0]octan-8-endo-ol-nitrate]","BAF, changes",[8],-23 ± 5 mL/min
same,"BAF, length of action",[8],> 167 min
same,"BAF, maximum efficacy",[8],42 ± 8 min
same,"CO, changes",[8],-0.09 ± 0.02 L/min
same,"CO, length of action",[8],> 167 min
same,"CO, maximum efficacy",[8],62 ± 8 min
same,HR changes,[8],-23 ± 4 beats/min
same,"HR, length of action",[8],> 167 min
same,"HR, maximum efficacy",[8],78 ± 44 min
same,"LV dp/dt, changes",[8],-879 ± 90 mmHg/s
same,"LV dp/dt, length of action",[8],> 132 min
same,"LV dp/dt, maximum efficacy",[8],76 ± 10 min
same,"LVEDP, changes",[8],-2.3 ± 0.9 mmHg
same,"LVEDP, length of action",[8],77 ± 8 min
same,"LVEDP, maximum efficacy",[8],38 ± 27 min
same,"LVP, changes",[8],-38 ± 11 mmHg
same,"LVP, length of action",[8],> 153 min
same,"LVP, maximum efficacy",[8],65 ± 17 min
same,"MAP, changes",[8],-25 ± 4 mmHg
same,"MAP, length of action",[8],> 167 min
same,"MAP, maximum efficacy",[8],58 ± 12 min
same,"PAP, changes",[8],-4.3 ± 5 mmHg
same,"PAP, length of action",[8],111 ± 16 min
same,"PAP, maximum efficacy",[8],33 ± 11 min
same,"SV, changes",[8],+0.5 ± 0.07 ml/min
same,"SV, length of action",[8],> 167 min
same,"SV, maximum efficacy",[8],33 ± 3 min
same,"TPVR, changes",[8],-23 ± 3 mmHg/ml
same,"TPVR, length of action",[8],> 136 min
same,"TPVR, maximum efficacy",[8],39 ± 5 min
same,"CO (cardiac minute volume), efficacy of the substance",[8]; previous value 0.75 ± 0.03,0.66 ± 0.05 L/min
same,"LVEDP (left ventricular end diastolic pressure), efficacy of the substance",[8]; previous value 3.8 ± 1,1.5 ± 2 mmHg
same,"SV (cardiac output), efficacy of the substance",[8]; previous value 5.3 ± 0.4,5.8 ± 0.3 mL/min
same,"PAP (blood pressure in the A. pulmonalis), efficacy of the substance",[8]; previous value 22.8 ± 6,18.5 ± 7 mmHg
same,"BAF (blood flow in the A femoralis), efficacy of the substance",[8]; previous value 70 ± 4,47 ± 23 mL/min
same,"MAP (mean arterial blood pressure), efficacy of the substance",[8]; previous value 116 ± 7,91 ± 12 mmHg
same,"LVP (left ventricular blood pressure), efficacy of the substance",[8]; previous value 133 ± 9,95 ± 10 mmHg
same,"HR (cardiac frequency), efficacy of the substance",[8]; previous value 142 ± 5,119 ± 7 beats/min
same,"TPVR (total peripheral vascular resistence), efficacy of the substance",[8]; previous value 155 ± 8,132 ± 10 mmHg/ml
same,"LV dp/dt (maximum left ventricular pressure increase rate), efficacy of the substance",[8]; previous value 2345 ± 100,1466 ± 189 mmHg/s
same,ED50,[2]; iv,4.6 mg/kg
same,ED50,[2]; i.d.,74.6 mg/kg
same,"BAF, changes",[9],-34 ± 5 mL/min
same,"BAF, length of action",[9],109 min
same,"BAF, maximum efficacy",[9],1.3 ± 0.3 min
same,"CO, changes",[9],-0.09 ± 0.02 L/min
same,"CO, length of action",[9],113 ± 21 min
same,"CO, maximum efficacy",[9],5 ± 2 min
same,HR changes,[9],-13 ± 10 beats/min
same,"HR, length of action",[9],> 114 min
same,"HR, maximum efficacy",[9],7 ± 3 min
same,"LV dp/dt, changes",[9],-811 ± 116 mmHg/s
same,"LV dp/dt, length of action",[9],107 ± 12 min
same,"LV dp/dt, maximum efficacy",[9],6.8 ± 5 min
same,"LVEDP, changes",[9],0.7 ± 0.7 mmHg
same,"LVEDP, length of action",[9],51 ± 28 min
same,"LVEDP, maximum efficacy",[9],9.3 ± 8 min
same,"LVP, changes",[9],-38 ± 2 mmHg
same,"LVP, length of action",[9],103 ± 28 min
same,"LVP, maximum efficacy",[9],1.7 ± 0.4 min
same,"MAP, changes",[9],-36 ± 20 mmHg
same,"MAP, length of action",[9],111 ± 15 min
same,"MAP, maximum efficacy",[9],1.2 ± 0.0 min
same,"PAP, changes",[9],-5 ± 2 mmHg
same,"PAP, length of action",[9],50 ± 18 min
same,"PAP, maximum efficacy",[9],3.0 ± 0.1 min
same,"SV, changes",[9],+0.3 ± 0.5 ml/min
same,"SV, length of action",[9],31 ± 24 min
same,"SV, maximum efficacy",[9],2 ± 1 min
same,"TPVR, changes",[9],-43 ± 4 mmHg/ml
same,"TPVR, length of action",[9],13 ± 8 min
same,"TPVR, maximum efficacy",[9],1.0 ± 1.0 min
same,"CO (cardiac minute volume), efficacy of the substance",[9]; previous value 0.83 ± 0.04,0.74 ± 0.08 L/min
same,"LVEDP (left ventricular end diastolic pressure), efficacy of the substance",[9]; previous value 3.8 ± 1.0,3.1 ± 1.0 mmHg
same,"SV (cardiac output), efficacy of the substance",[9]; previous value 6.0 ± 0.4,6.3 ± 0.6 mL/min
same,"PAP (blood pressure in the A. pulmonalis), efficacy of the substance",[9]; previous value 22 ± 3,17 ± 2 mmHg
same,"BAF (blood flow in the A femoralis), efficacy of the substance",[9]; previous value 73 ± 16,40 ± 11 mL/min
same,"MAP (mean arterial blood pressure), efficacy of the substance",[9]; previous value 117 ± 5,81 ± 5 mmHg
same,"LVP (left ventricular blood pressure), efficacy of the substance",[9]; previous value 130 ± 12,92 ± 12 mmHg
same,"HR (cardiac frequency), efficacy of the substance",[9]; previous value 140 ± 8,127 ± 4 beats/min
same,"TPVR (total peripheral vascular resistence), efficacy of the substance",[9]; previous value 142 ± 9,99 ± 6 mmHg/ml
same,"LV dp/dt (maximum left ventricular pressure increase rate), efficacy of the substance",[9]; previous value 2558 ± 141,1747 ± 84 mmHg/s
same,NOAEL,[3],500 mg/kg
same,HR changes,"[4]; 5.0 mg/kg perorally, 0.5 h",-13 ± 2 Schl/M
same,SAP changes,"[4]; 5.0 mg/kg perorally, 0.5 h",-28 ± 6 mmHg
same,HR (heart rate),"[4]; 5.0 mg/kg perorally, 0.5 h, 0 h value 95 ± 8",82 ± 7 Schl/M
same,SAP (systolic arterial pressure),"[4]; 5.0 mg/kg perorally, 0.5 h, 0 h value 137 ± 7",109 ± 4 mmHg
same,HR changes,"[4]; 5.0 mg/kg perorally, 1 h",-20 ± 5 Schl/M
same,SAP changes,"[4]; 5.0 mg/kg perorally, 1 h",-31 ± 5 mmHg
same,HR (heart rate),"[4]; 5.0 mg/kg perorally, 1 h, 0 h value 95 ± 8",75 ± 5 Schl/M
same,SAP (systolic arterial pressure),"[4]; 5.0 mg/kg perorally, 1 h, 0 h value 137 ± 7",106 ± 2 mmHg
same,HR changes,"[4]; 5.0 mg/kg perorally, 2 h",-24 ± 6 Schl/M
same,SAP changes,"[4]; 5.0 mg/kg perorally, 2 h",-21 ± 2 mmHg
same,HR (heart rate),"[4]; 5.0 mg/kg perorally, 2 h, 0 h value 95 ± 8",70 ± 6 Schl/M
same,SAP (systolic arterial pressure),"[4]; 5.0 mg/kg perorally, 2 h, 0 h value 137 ± 7",116 ± 5 mmHg
same,HR changes,"[4]; 5.0 mg/kg perorally, 3 h",-19 ± 5 Schl/M
same,SAP changes,"[4]; 5.0 mg/kg perorally, 3 h",-15 ± 4 mmHg
same,HR (heart rate),"[4]; 5.0 mg/kg perorally, 3 h, 0 h value 95 ± 8",76 ± 4 Schl/M
same,SAP (systolic arterial pressure),"[4]; 5.0 mg/kg perorally, 3 h, 0 h value 137 ± 7",122 ± 4 mmHg
same,HR changes,"[4]; 5.0 mg/kg perorally, 4 h",-14 ± 4 Schl/M
same,SAP changes,"[4]; 5.0 mg/kg perorally, 4 h",-9 ± 3 mmHg
same,HR (heart rate),"[4]; 5.0 mg/kg perorally, 4 h, 0 h value 95 ± 8",81 ± 4 Schl/M
same,SAP (systolic arterial pressure),"[4]; 5.0 mg/kg perorally, 4 h, 0 h value 137 ± 7",128 ± 7 mmHg
same,ED50,[5],50.8 mg/kg
same,Length of action at ED50-Dose,[5],240 min
same,ED (30 mmHg),[6],22.8 mg/kg
